Experimental data as given in patent US20240115554A1, “METHODS FOR TREATING OBSTRUCTIVE HYPERTROPHIC CARDIOMYOPATHY” (Cytokinetics, Incorporated, priority 2022, published 2024).
“And” between values parts separate entries of the source, which are not always exact repeats. Equal entries are not always repeated. “Also recorded” adds a separate entry of the source.

Columns and labels:
[1] = test system: patients with symptomatic obstructive HCM (oHCM); assay: Phase 2 trial: echocardiography (LVOT-G, LVEF, cardiac remodeling); format: in vivo, human; conditions: for patients achieving resting gradient <30 mmHg and post-Valsalva gradient <50 mmHg at Week 10 (complete hemodynamic response): n=14
Source text: Cohort 3 included patients receiving disopyramide.
Since patient characteristics vary substantially in this disease, individualized dose titration to a pharmacodynamics (PD) response (reduction of the LVOT-G to <30 mmHg with preservation of LVEF >50%) was employed to maximize efficacy and safety.
Patients up-titrated to Dose 2 if either of the following conditions were met on echocardiography: (1) resting LVOT-G ≥30 mmHg and the biplane LVEF ≥50%; or (2) resting LVOT-G <30 mmHg, post-Valsalva LVOT-G ≥50 mmHg, and the biplane LVEF ≥50%. Otherwise, the patient remains on Dose 1. If LVEF is <50% at Week 2, the patient was down-titrated to placebo.
Patients were escalated to the next higher dose if either of the following conditions were met on echocardiography: (1) resting LVOT-G ≥30 mmHg and the biplane LVEF ≥50%; or (2) resting LVOT-G <30 mmHg, post-Valsalva LVOT-G ≥50 mmHg, and the biplane LVEF ≥50%. Otherwise, the patient remained on the same dose. If LVEF was <50% at Week 4, the patient was returned to a prior dose level or to placebo if the patient was on Dose 1.
Echocardiograms obtained every 2 weeks and 2 weeks after the last dose were analyzed for several key structural and physiologic metrics and N-terminal prohormone of brain natriuretic peptide (NT-proBNP).
Overall, treatment duration for each patient in the study was 10 weeks with an echocardiogram conducted 2 weeks after the last dose.
Secondary results from the clinical study included data from Cohort 3 (n=13). […] Overall, treatment duration for each patient in the study was 10 weeks with an echocardiogram conducted 2 weeks after the last dose. Efficacy endpoints included resting and provoked LVOT gradients, NYHA class, and NT-proBNP.

healthy adults = conditions: in vivo
Source text: Study Overview and Ethics. The study used a randomized, placebo-controlled, single-ascending dose (SAD) and multiple-ascending dose (MAD) design (FIG. 2). […] Dose escalation was to be stopped when this range was achieved, or when a non-tolerated dose was identified, if earlier.
Single-ascending dose (SAD) cohorts. The SAD portion of the study used a randomized, double-blind, placebo-controlled, sequential, escalating-dose design, in which participants received single-ascending oral doses of the study drug. Seven cohorts were dosed in sequence (FIG. 2).
Recommendations regarding dose escalation in the SAD cohorts—and in the MAD cohorts described below—were made by the treating investigator (who was blinded to treatment group) and endorsed or not by the Dose Level Review Committee (DLRC), who were unblinded. […] Criteria for escalation included that no more than 2 participants in a dose group developed an LVEF <50% and no individual developed an LVEF <45%.
Multiple-ascending dose (MAD) cohorts. The MAD cohorts also used a randomized, double-blind, placebo-controlled, sequential design.
Safety and tolerability. Safety was assessed by the incidence of adverse events (AEs) and by incidence of reduced LVEF. Treatment-emergent AEs (TEAE) were defined as AEs that began or increased after study drug administration. All AEs were coded using the Medical Dictionary for Regulatory Activities version 21.1 and graded using the National Cancer Institute Common Terminology Criteria for AEs (version 4.03) 5-point severity scale. Each AE was judged as either related or unrelated to the study drug by the treating investigator. Clinical laboratory tests were obtained at regular intervals in all cohorts.
For safety monitoring, participants in all cohorts had periodic echocardiograms, which were assessed by a cardiologist. In the SAD and MAD cohorts, echocardiograms were also reviewed by an echocardiography core laboratory for PD assessments, as described below. In addition, participants in all cohorts were monitored with continuous 12-lead ECG recording using Holter monitors. For safety monitoring, a single 12-lead ECG was extracted at screening, pre-dose, and periodically throughout follow-up, and interpreted by the investigator. In the SAD, MAD, and CYP2D6-PM cohorts, cardiodynamic ECGs (triplicate 10-second, 12-lead ECG recordings) were obtained prior to the corresponding PK blood and ECG intervals quantitated by qualified readers.

[2] = test system: patients with symptomatic oHCM; assay: Open-label extension: background therapy reduction/withdrawal (BTR/W); format: in vivo, human
Method: Patients were dosed following the protocol of Example 3a or Example 3b. Patients were classified as receiving SoC therapy (both first line and second line) if treated with at least one beta-blocker (BB), non-dihydropyridine calcium channel blocker (CCB), or disopyramide. […] Successful BTR/W was defined as at least a dose-reduction of one medication to ≤50% of baseline. Serial metrics were collected per protocol but side effects specifically related to SoC therapy were not.

[3] = test system: patients with symptomatic oHCM; assay: Open-label extension: SRT eligibility per guideline criteria; format: in vivo, human; conditions: Week 48 visit; 19 patients (42%) eligible at baseline
Source text: There was a substantial reduction in peak resting and Valsalva LVOT-G from baseline to week 48 [ΔResting mean: −32 mmHg (±28); Δ Valsalva mean: −47 mmHg (±28)] (see FIG. 53 and FIG. 54, respectively). […] There was substantial improvement in NYHA class: by week 48, 88% of patients experienced ≥1 NYHA FC improvement while none had NYHA FC worsening (see FIG. 56). At baseline, 19 patients (42%) were eligible for SRT per guideline criteria of symptoms and hemodynamics, despite receiving beta-blocker, (78%) calcium channel blocker (18%), and disopyramide (22%). […] NT pro-BNP decreased from baseline to Week 48 (from a geometric mean [CV %] of 651.0 [160.4] to 111.1 [93.4] pg/mL), representing a […] reduction from baseline (p<0.0001).

[4] = Cohort 3 (with disopyramide), n=13
[5] = baseline to week 10, pooled aficamten

CCc1nc(-c2ccc3c(c2)CC[C@H]3NC(=O)c2cnn(C)c2)no1 [aficamten, (R)—N-(5-(5-ethyl-1,2,4-oxadiazol-3-yl)-2,3-dihydro-1H-inden-1-yl)-1-methyl-1H-pyrazole-4-carboxamide]
patients achieving resting gradient <30 mmHg and post-Valsalva gradient <50 mmHg at Week 10 (complete hemodynamic response) ([1]; Cohort 1 (5, 10, 15 mg)): 78.6% and 79%
average resting LVOT-G at 10 weeks ([1]; Cohort 1 (n=14), 53.8 mmHg at baseline): 13.4 mmHg
average Valsalva LVOT-G at 10 weeks ([1]; Cohort 1 (n=14), 77.4 mmHg at baseline): 38.1 mmHg
average ejection fraction at 10 weeks ([1]; Cohort 1 (n=14), baseline 72.8% (73±6%)): 67.3% and 67±9%
patients achieving resting gradient <30 mmHg and post-Valsalva gradient <50 mmHg at Week 10 (complete hemodynamic response) ([1]; Cohort 2 (10, 20, 30 mg)): 92.9% and 93%
average resting LVOT-G at 10 weeks ([1]; Cohort 2 (n=14), 58.2 mmHg at baseline): 15.1 mmHg
average Valsalva LVOT-G at 10 weeks ([1]; Cohort 2 (n=14), 82.3 mmHg at baseline): 29.8 mmHg
average ejection fraction at 10 weeks ([1]; Cohort 2 (n=14), baseline 75.4% (75±6%)): 64.1% and 64±8%
patients with complete or partial response in LVOT gradients at end of treatment ([1]; Cohort 3 (Ten of 13)): 77%
patients with temporary complete or partial response during the treatment period ([1]; Cohort 3 (Three patients)): 23%
mean (SD) reduction of resting LVOT-G at Week 10 [1, 4]: 27 mmHg
mean reduction of Valsalva LVOT-G at Week 10 [1, 4]: 28 mmHg
mean LVEF at end of 10-week treatment ([1]; Cohort 3 (with disopyramide), baseline 74±7.5%): 69±7.2%
dose dependence of reductions in LVOT-G ([1]; Cohorts 1 and 2): dose dependent
onset of reductions in LVOT-G ([1]; Cohorts 1 and 2): within two weeks of initiating treatment
mean reduction in EF per mg of aficamten ([1]; Cohorts 1 and 2, dose vs EF over time): −0.6 % per mg
change in e′ [1, 5]: 0.5 cm/s
change in lateral E/e′ [1, 5]: −2.0 (±1.1)
LVMI mean difference, aficamten vs placebo ([1]; week 10): 8.1 g/m^2
participants with echocardiogram-related AEs of decreased ejection fraction <45% (healthy adults; human): 3 participants
overall safety and tolerability (healthy adults): safe and well tolerated
post-dose LVEF of 1 participant with LVEF <50% (healthy adults): 46.2%
serum chemistry, hematology, urinalysis findings (healthy adults): No clinically significant serum chemistry, hematology, or urinalysis findings
patients achieving any successful BTR/W among those attempted ([2]; 17 of 20 patients with attempted BTR/W): 85%
patients who completely discontinued at least one SoC medication ([2]; BTR/W): 10 patients
patients who withdrew from all SoC (aficamten monotherapy) ([2]; BTR/W): 5 patients
NT-pro B-type Natriuretic Peptide ([2]; post-BTR/W): 532 ± 934 pg/mL
high-sensitivity troponin I ([2]; post-BTR/W): 5.1 ± 1.6 ng/L
mean HR after BTR/W ([2]; post-BTR/W (N=14)): 74±10 bpm
mean Valsalva LVOT-G after BTR/W ([2]; post-BTR/W (N=14)): 42±26 mmHg
increase in Valsalva LVOT-G after BTR/W ([2]; pre- vs post-BTR/W (N=14)): 15 mmHg
increase in resting HR after BTR/W ([2]; pre- vs post-BTR/W (N=14)): 12 bpm
NT-pro B-type Natriuretic Peptide ([2]; pre-BTR/W): 321 ± 424 pg/mL
high-sensitivity troponin I ([2]; pre-BTR/W): 4.8 ± 1.8 ng/L
patients with unsuccessful attempted BTR/W ([2]; reinstitution of BB): 3 patients
patients eligible for SRT per guideline criteria [3]: none of these patients met these criteria; also recorded: eliminated SRT eligibility in all patients
